The record followed here is patent US10806798B2, “Compound with effects of thrombolysis, free radical scavenging and thrombus-targeting” (Shanghai Lumosa Therapeutics Co., Ltd., priority 2012, dated 2020).

Marks after values point to notes of the source that are not given here.

Assay [1] deals with thrombus. Description: In vivo anti-thrombus experiment (arteriovenous cannula with thread). Also noted: species or system SD rats. Particulars: n = 11.
Method: SD rats (male, 220 to 230 g) were randomly divided into groups with 11 rats in each group. The rats were fed at a resting state for 1 day and fasted overnight. […] After 30 min, the rats were anesthetized with a 20% urethane solution, and the right carotid artery and the left carotid vein were dissected. A cannula was filled with sodium heparin in normal saline, and one end thereof was inserted into the left vein, while the other end was injected with a certain amount of sodium heparin for anticoagulation with an injector and then inserted into the right artery. Blood flew from the right artery to the left vein through the polyethylene tubing, and the thread attached with thrombus was taken out after 15 min and the weight thereof was recorded. The wet thrombus weight was determined by subtracting the thread weight from the total weight.
For assay [2], the system named is NO free radicals (acetylcholine induced vasodilation). Description: NO radical scavenging: inhibition of acetylcholine induced vasodilation of aorta rings. Also noted: species or system Wistar rats. Particulars: final concentration 5×10^−6 M; n = 6. The method, then: Male Wistar rats weighing 250 to 300 g were starved for 12 h before operation with free access to drinking water, and sacrificed by cervical dislocation. Thoracotomy was immediately carried out and thoracic aorta was taken out, connective tissues attached thereto were dissected, and vessels were cut into aorta rings with a length of 3 to 5 mm and placed into a perfusion bath. The bath contained 15 ml Krebs-Henseleit solution and was kept at a constant temperature of 37° C., into which 95% O2-5% CO2 gas was charged. The anchor to which the aorta rings were immobilized was connected to a tension transducer, and vasomotion curves were recorded on a dual-trace recorder at a paper speed of 1 mm/min. With the static tension adjusted to 1.0 g and 30 min of equilibration, norepinephrine at a final concentration of 10^−8 M was dosed to allow the aorta to contract for preexcitation. Norepinephrine was washed off, followed by 30 min of equilibration, and norepinephrine was added into the bath to a final concentration of 10^−8 M. When the contraction tension was steady at a plateau level, 20 μl normal saline (blank), a 20 μl solution of any one of compounds Ia to Il in normal saline (at a final concentration of 5×10^−6 M), or a 20 μl solution of NO free radical scavenger (1,3-dioxo-2-(4′-oxyacetoxyl-phenyl)-4,4,5,5-tetramethylimidazoline, TMMZ) in normal saline (at a final concentration of 5×10^−6 M) was added into the bath. When stabilized, a 20 μl acetylcholine in normal saline was added (at a final concentration of 10^−6 M). The NO scavenging ability of the drugs was expressed as a percentage of inhibition of acetylcholine induced vasodilation.

Assay [3] concerns rats with stroke. The assay can be described thus: Cerebral infarction volume after immediate treatment of stroke (TTC staining). The format is in vivo, SD rats. The conditions noted are these: 1 μmol/kg; immediate treatment; n = 10. As to the method: After the rats were awake for 24 h and assessed for their degree of damage in neural function in Experimental example 6, they were anesthesized with urethane followed by immediate decapitation and removal of the brain. Brain tissues were kept in a −20° C. refrigerator for 2 h, and coronal sections of about 2 mm were successively sliced from the prefrontal end for a total of 6 sections, and then placed into a 2% TTC solution to incubate in darkness at 37° C. for 30 min. The color change in brain sections was observed: normal brain tissues were stained red by TTC, while ischemic brain tissues, i.e., brain tissues with infracts, appeared in a white color. Photographs were taken by using a digital camera and processed with SPSS statistics software, and the volume of infarction in brain tissues and the volume of normal brain tissues in the coronal sections were calculated.

The test system of assay [4] is rats with stroke. Description: Immediate treatment after stroke onset, neural function scores (Zealonga method, 0 no loss to 5 death). The format is in vivo, SD rats. Particulars: 1 μmol/kg, 24 h after awake. The method, then:
The in vivo anti-stroke activity of the present invention was represented by neural function scores, with a lower score indicating higher activity. A 10% chloral hydrate solution (400 mg/kg) was injected intraperitoneally into SD male rats (250-300 g) for anesthesia. An open incision of 2 cm in length was longitudinally made slightly on the right to the center of the neck, and the right common carotid artery trunk, carotid external artery and carotid internal artery were dissected along the margin of the inner side of sternocleidomastoid muscles. The open incisions in the carotid internal artery and the proximal end of the common carotid artery were occluded respectively with noninvasive arterial clips. A small open incision was made across the carotid external artery, and the distal end of the carotid external artery was ligated. The arterial clip at the proximal end of the carotid external artery was released, and 10 μl blood was drawn before the proximal end of the common carotid artery was again occluded with the noninvasive arterial clip. The 10 μl blood drawn was placed in a 1 mL EP vial and kept at RT for 30 min for coagulation of blood, and then transferred into a −20° C. refrigerator for 1 h to allow coagulation. After 1 h, the blood clots were taken out, into which 1 mL saline was added, and then broken into uniform microthrombus by using a steel spatula. The microthrombus suspension was then transferred to a 1 mL injector until use. At the same time when the clip on the carotid internal artery of the rat was released, 1 mL thrombus suspension in the injector was slowly injected from the carotid external artery of the rat to its proximal end, and the suspension was injected into the brain of the rat through the carotid internal artery. Subsequently, the proximal end of the carotid external artery was ligated, the arterial clips on the carotid internal artery and the common carotid artery were released, and blood flow was restored. The jugular common vein of the rats was dissected. The vein was immediately ligated, 3 drops of penicillin was dropped at the wound site, the wound was stitched up, and the animals were allowed to come around, as the sham operation group. Or injection of urokinase in normal saline (positive control group, at a dosage of 20000 IU/kg), normal saline (blank control group, at a dosage of 3 ml/kg), TMMZ in normal saline (component control group, at a dosage of 1 μmol/kg), a thrombolytic peptide ARPAK (SEQ. ID NO. 4), GRPAK (SEQ. ID NO. 5), RPAK (SEQ. ID NO. 3) or PAK in normal saline (component control group, at a dosage of 1 μmol/kg), or one of compounds Ia-Il in normal saline (at a dosage of 0.1 μmol/kg) was carried out. 24 h after the rats were awake, the degree of damage in the neural function was evaluated by the Zealonga method. A score of 0 indicated no sign of loss in neural function, 1 indicated the front limbs on the undamaged side could not stretch out, 2 indicated walking toward the undamaged side, 3 indicated tail-chasing walking in circles toward the undamaged side, 4 indicated involuntary walking with disturbance of consciousness, and 5 indicated death.

The subject of assay [5] is thrombus. The assay can be described thus: In vivo thrombolysis, rat arteriovenous bypass thrombolysis model. Also noted: species or system SD rats. Particulars: 1 μmol/kg, after 1 h, n = 10. As to the method:
SD rats (male, 220 to 230 g) were anaesthetized by intraperitoneal injection of a urethane solution at a dosage of 1200 mg/kg. The anaesthetized rats were fixed in a supine position, and the right common carotid artery was dissected, clamped at the proximal end with an arterial clip, and penetrated with a suture at the proximal and distal ends, respectively. The suture at the distal end is clipped tightly by a hemostatic clamp at the fur. Cannulation was performed at the distal end, the arterial clamp was removed, and about 1 ml arterial blood was discharged into a 1 ml eppendorf. 0.1 ml rat arterial blood was injected into a vertically fixed glass tube (15 mm in length, with an inner diameter of 2.5 mm and an outer diameter of 5.0 mm, sealed with a rubber stopper at the bottom), into which was immediately inserted a thrombus immobilization screw made of stainless steel. […] 15 min after the blood was coagulated, the rubber stopper at the bottom of the glass tube was removed, the stem of the thrombus immobilization screw was nipped by forceps, and the thrombus-wrapped thrombus immobilization screw was carefully taken out of the glass tube and then accurately weighed.
A bypass cannula was composed of 3 segments. The middle segment was a polyethylene tubing having a length of 60.0 mm and an inner diameter of 3.5 mm. The segments on both ends were similar polyethylene tubes having a length of 100.0 mm, an inner diameter of 1.0 mm and an outer diameter of 2.0 mm, one end of which was pulled to form a tip, with an outer diameter of 1.0 mm, that could be inserted into the rat carotid artery or vein, and the other end of which was sheathed by a polyethylene tube having a length of 7.0 mm and an outer diameter of 3.5 mm (thickened in order to be inserted into the polyethylene tubing of the middle segment). The inner wall of the 3-segment cannula was entirely silylated (with 1% silicone oil in ethyl ether). The thrombus-wrapped thrombus immobilization screw was placed into the polyethylene tubing of the middle segment, and both ends of the tubing sheathed the thickened ends of the two polyethylene tubes. The cannula was filled with a heparin solution in normal saline (50 IU/kg) through the tip end by using an injector and was ready for use. The trachea of the anaesthetized rat was then dissected and tracheal cannulation was performed. The left external carotid vein of the rat was dissected, and penetrated with a suture at the proximal and distal ends, respectively. An uneven open incision was careful made on the exposed left external carotid vein, and the tip of the bypass cannula prepared as described above was inserted into the proximal end of the open incision in the left external carotid vein, away from the stem of the thrombus immobilization screw in the middle segment of the bypass cannula (which accommodated the accurately weighed thrombus immobilization screw). A precise amount of heparin in saline (50 IU/kg) was injected through the tip at the other end by using an injector. At this moment, without removing the injector from the ethylene tube, the tubing between the injector and the polyethylene tube was clamped with forceps. The blood flow was stopped by clamping the proximal end of the right common carotid artery with an arterial clip, and an uneven open incision was cut carefully across the common carotid artery near the clip. The injector was pulled out of the tip of the polyethylene tube, and the tip of the polyethylene tube was then inserted into the proximal end of the artery open incision. Both ends of the bypass cannula were fixed to the artery or vein with #4 sutures. […]

The test system of assay [6] is thrombus from rat arterial blood. Description: In vitro thrombolysis. Set-up: species or system SD rats. The conditions noted are these: 100 nM, 2 h at 37° C., n = 6. The method, then:
SD rats (male, 350 to 400 g) were anaesthetized by intraperitoneal injection of a urethane solution at a dosage of 1200 mg/kg. The anaesthetized rats were fixed in a supine position, and the right common carotid artery was dissected, clamped at the proximal end with an arterial clip, and penetrated with a suture at the proximal and distal ends, respectively. The suture at the distal end is clipped tightly by a hemostatic clamp at the fur. Cannulation was performed at the distal end, the artery clamp was removed, and the total arterial blood was discharged into a 50 ml container previously treated with silicone oil. […] rat arterial blood was injected into a vertically fixed glass tube (20 mm in length, with an inner diameter of 4 mm and an outer diameter of 5 mm, sealed with a rubber stopper at the bottom), into which was immediately inserted a thrombus immobilization screw made of stainless steel. […] 40 min after the blood was coagulated, the rubber stopper at the bottom of the glass tube was removed, the stem of the thrombus immobilization screw was nipped by forceps, and the thrombus-wrapped thrombus immobilization screw was carefully taken out from the glass tube. The screw was then suspended and dipped in triple-distilled water to remove excessive blood, and accurately weighed after 1 h. The thrombus was suspended in 8 mL of normal saline, or a solution of compounds Ia-Il in normal saline (at a concentration of 100 nM), or a solution of ARPAK (SEQ. ID NO. 4), GRPAK (SEQ. ID NO. 5), RPAK (SEQ. ID NO. 3) or PAK in normal saline (at a concentration of 100 nM), or a solution of urokinase in normal saline (100 IU/mL), then shaked at 37° C. in a thermostatic shaker (63 r/min), and removed after 2 h and accurately weighed to determine the weight of the thrombus.

With “Arg-Gly-Asp-Val (RGDV) [RGDV (SEQ. ID NO. 12), targeting peptide, reference compound]”, the “Wet weight of thrombus (Mean ± SD mg)” value in the assay with thrombus [1] (10 μmol/kg by gavage) was 21.26 ± 2.07 mg.
Consider `CC1(C)N([O])C(c2ccc(OCC(=O)O)cc2)=[N+]([O-])C1(C)C` [TMMZ, 1,3-dioxo-2-(4′-oxyacetoxy-phenyl)-4,4,5,5-tetramethylimidazoline, reference compound], for which the “Percentage of inhibition (Mean ± SD %) of vasodilatation induced by acetylcholine” value in assay [2] was 15.47%. Further, the “Percentage of infarction volume (Mean ± SD %)” value in the assay on rats with stroke [3] is listed as 22.96 ± 2.43 ^a %. Besides, the “Neural function scores (Mean ± SD)” value with rats with stroke [4] (n = 10) was 2.83 ± 0.75 ^a.
As for `CC(=O)Oc1ccccc1C(=O)O` [aspirin, reference compound], the “Wet weight of thrombus (Mean ± SD mg)” value in the assay on thrombus [1] (aspirin 33 mg/kg by gavage) is 12.85 ± 2.49 ^a mg.
Take “Gly-Arg-Pro-Ala-Lys (GRPAK) [GRPAK (SEQ. ID NO. 5), thrombolytic peptide, component control, reference compound]”: the “Weight reduction in thrombus (Mean ± SD mg)” value (in the assay with thrombus [5]; in assay [6]) was 15.47 ± 2.61 mg each time. In addition, the “Percentage of infarction volume (Mean ± SD %)” value with rats with stroke [3] is given as 21.77 ± 2.46 ^a %.
“Ala-Arg-Pro-Ala-Lys (ARPAK) [ARPAK (SEQ. ID NO. 4), thrombolytic peptide, component control, reference compound]”: the “Weight reduction in thrombus (Mean ± SD mg)” value in the assay on thrombus [5] came out at 15.20 ± 2.55 mg; in assay [6], 26.35 ± 3.10 mg. Moreover, the “Percentage of infarction volume (Mean ± SD %)” value with rats with stroke [3] was 22.00 ± 2.20 ^a %.
“Arg-Pro-Ala-Lys (RPAK) [RPAK (SEQ. ID NO. 3), thrombolytic peptide, component control, reference compound]”: the “Weight reduction in thrombus (Mean ± SD mg)” value was 15.67 ± 2.61 mg in the assay on thrombus [5] and 26.01 ± 3.11 mg in assay [6]. For the same molecule, in the assay on rats with stroke [3], the “Percentage of infarction volume (Mean ± SD %)” value is on record as 22.11 ± 2.25 ^a %. Moreover, the “Neural function scores (Mean ± SD)” value is “did not exhibit anti-stroke activity” with rats with stroke [4] (n = 10) and 2.38 ± 0.97 ^a with rats with stroke [4] (n = 10, listed as RPAKI (SEQ. ID NO. 3)).
For “Arg-Gly-Asp-Ser (RGDS) [RGDS (SEQ. ID NO. 11), targeting peptide, reference compound]”, the “Wet weight of thrombus (Mean ± SD mg)” value in the assay with thrombus [1] (10 μmol/kg by gavage) was found to be 20.02 ± 2.35 mg.
For the molecule Pro-Ala-Lys [PAK, reference compound], the “Weight reduction in thrombus (Mean ± SD mg)” value with thrombus [5] came to 15.00 ± 2.61 mg; in assay [6] it was 26.67 ± 3.20 mg. In the assay on rats with stroke [3], the “Percentage of infarction volume (Mean ± SD %)” value is 22.07 ± 2.40 ^a %.
As to “Arg-Gly-Asp-Phe (RGDF) [RGDF (SEQ. ID NO. 13), targeting peptide, reference compound]”, the “Wet weight of thrombus (Mean ± SD mg)” value with thrombus [1] (10 μmol/kg by gavage) is 19.55 ± 2.21 mg.
